Key:
[1] = tested on: caspase-9; assay: Western blot, cleaved caspase-9; assay type: cell-based, human; conditions: 5 µM, LoVo cells
Method: (§1) Lovo cells (1.5 × 10^4 cells/cm^2) were seeded in a T75 flask and incubated at 37 °C and 5% CO2 atmosphere overnight. The seeded cells were then treated with selected compounds at 5 µM of 2e for 24 h, 48 h, and 72 h. After treatment, the cells were harvested and lysed with phenylmethanesulfonyl fluoride (PMSF)-containing cell lysis buffer. The lysates were then centrifuged at 13,300× g for 15 min and the supernatant was collected. Protein concentrations of all samples were determined using a BCA assay kit (Thermo Scientific Inc., Waltham, MA, USA). Equal amounts of protein were electrophoresed in 12% and 20% SDS-polyacrylamide gel (SDS-PAGE), and electro-transferred onto a 0.22-μm polyvinyldene difluoride membrane. Each membrane was blocked with 5% (w/v) skim milk at room temperature for 1 h followed by overnight incubation with specific primary antibodies (1:1000) at 4 °C. Subsequently, the respective membrane was washed thrice with TBST (0.05% (v/v) of tween-20) followed by 1 h incubation with secondary antibody (1:10,000). Upon completion, the membrane was washed thrice with 1X Tris-Buffered Saline, 0.1% Tween® 20 Detergent (TBST) and the immune reactive bands were developed using SuperSignal West Dura Extended Duration Substrate (Thermo Scientific Inc., Waltham, MA, USA). […]

[2] = tested on: LS411N cells; assay: MTT cytotoxicity assay, LS411N cells; assay type: cell-based; conditions: Homo sapiens, LS-411N, 72 h post-treatment, read-out: IC50 (µM) BRAF LS411N
Method: The in-vitro cytotoxic activity of the synthesized compounds on seven human CRC cell lines including KRAS (T84, SW620, LoVo) and BRAF (HT29, NCI-H508, RKO and LS411N) mutated cells were determined by MTT assay as previously described. The IC50 values obtained are summarized in Table 2 in which 5-FU and normal human dermal fibroblasts (NHDF) were used as controls. Meanwhile, a heatmap (Figure 3) was also generated using GraphPad Prism v7.0 (GraphPad Software, La Jolla, CA, USA) to visualize the cytotoxic trends of synthesized compounds graphically.
A panel of KRAS (T84, SW620 and LoVo) and BRAF (HT29, NCI-H508, RKO and LS411N) mutated human CRC cell lines were grown in Dulbecco’s modified Eagle’s medium (DMEM) containing 10% fetal bovine serum (FBS) and 1% penicillin/streptomycin at 37 °C under 5% CO2 while NHDF cells were cultured in DMEM with 5% FBS under the same condition. The culture medium was replenished every two days until the cells reached 80–90% confluency for further usage. All cell lines (T84, ATCC®CCL-248™; SW620, ATCC®CCL-227™; LoVo, ATCC®CCL-229™; HT-29, ATCC®HTB-38; NCI-H508, ATCC®CCL-253™; RKO, ATCC®CRL-2577; LS411N, ATCC®CRL-2159; NHDF, ATCC® PCS-201-010™) were purchased from American Type culture Collections (ATCC, Manassas, VA, USA).
LoVo cells (1.5–5 × 10^3 cells/well) were seeded into a 96 well plate and incubated at 37 °C and 5% CO2 atmosphere for 24 h. On the following day, the cell media were replaced with 100 µL of test compounds at various concentration. The final concentration of DMSO in the well is 0.1%. After 72 h of incubation, culture medium was removed and 100 µL of MTT (thiazoyl blue tertrazolium bromide) solution (0.5 mg/mL in culture media) was added. The resultant plates were then further incubated at 37 °C for 4 h. Upon completion, the MTT solution was removed and the formazan salts formed were dissolved in 100 µL of DMSO. The absorbance was recorded with a microplate reader at 570 nm. The IC50 values of tested compounds were calculated from three independent experiments.

[3] = tested on: cleaved PARP; assay: Western blot, cleaved PARP; assay type: cell-based, human; conditions: 5 µM, LoVo cells, after 24 h
Method: as §1

Q: `O=C1C(=Cc2ccccc2Br)CSCC1=Cc1ccccc1Br` [Compound 2e, 3,5-Bis(2-bromobenzylidene)tetrahydro-4H-thiopyran-4-one] was tested. Which caspase-9 cleavage [1] did it give?
A: activate the cleavage of caspase-9

Q: What about the IC50 [2] of the same compound?
A: 1.3 µM

Q: And the “cleaved PARP level” value [3]?
A: increased

Source: PMC7504466, “In-Vitro and In-Silico Evaluations of Heterocyclic-Containing Diarylpentanoids as Bcl-2 Inhibitors Against LoVo Colorectal Cancer Cells” (Molecules, 2020)
